Experimental data as given in patent US7850984B2, “Protection of the female reproductive system from natural and artificial insults” (The General Hospital Corporation, priority 2000, dated 2010).
Entries after “also recorded” stand apart in the source; their conditions may differ.

Key:
[1] = test system: polychromatic erythrocytes of F0, F1 and F2 mice; test: Micronuclei assay in polychromatic erythrocytes of tail blood; format: in vivo, mouse
Excerpt: To evaluate the possibility of transgenerational transmission of DNA damage, the frequency of micronuclei is used as a sensitive indicator of the extent of propagated genomic damage (Trott, K. R., Jamali, M., Manti, L. & Teibe, A. Manifestations and mechanisms of radiation-induced genomic instability in V-79 Chinese hamster cells. Int. J. Radiat. Biol. 74, 787-791 (1998); Manti, L., Jamali, M., Prise, K. M., Michael B. D. & Trott, K. R. Genomic instability in Chinese hamster ovary cells after exposure to X rays or alpha particles of different mean energy transfer. Radiat. Res. 147, 22-28 (1997)). Tail blood samples from 16-18 month old non-irradiated, vehicle-treated and irradiated, or S1P-treated and irradiated F0 mice, 16-18 month old F1 mice, or 12-16 month old F2 mice, are smeared onto glass microscope slides coated with acridine orange (Shinko Corporation, New York, N.Y.), and coded prior to analysis. The frequency of micronuclei is then assessed in the 10^3 polychromatic erythrocytes by flourescence microscopy (Hayashi, M., Morita, T., Kodama, Y., Sofuni, T., & Ishidate, M., Jr. The micronucleus assay with mouse peripheral blood reticulocytes using acridine orange-coated slides. Mutat. Res. 245, 245-249 (1990)), after which the slides are decoded for data interpretation.

C57BL/6J female mice = test: Mating trials of irradiated female mice; format: in vivo, mouse
Protocol: Eight-week old C57BL/6J female mice (Jackson Laboratories) are anesthetized by intraperitoneal injection of Avertin (30 μl of a 1.25% stock solution per gram of body weight; Aldrich Chemical Co.), and dorsal incisions are made to retrieve and expose the ovaries. Five μl of vehicle (5% polyethylene glycol, 2.5% ethanol, and 0.8% Tween-80, or PET) or of a stock of 2 mM S1P (BIOMOL) prepared in PET are injected into the bursa surrounding each ovary (see Example 10). Based on an estimated bursal cavity volume of 50 μl, the final concentration of S1P following this procedure is 200 μM. The ovaries are returned to the peritoneal cavity, the incisions are sutured, and the mice are allowed to recover for a 2-h pre-treatment period. Mice are then given a single dose of 0.05 or 0.1 Gy of abdominally directed ionizing radiation, using a cesium^137 source (Shepherd Mar-I, Model 68) at a dose rate of 0.7 Gy min^−1.
To evaluate whether the acute protection of oocytes by S1P also results in long-term preservation of ovarian function and fertility, mating trials are initiated 2 months after irradiation. For these studies, 8-week old C57BL/6J female mice are given intrabursal injections of vehicle or a maximally effective dose of S1P (0.2 mM final concentration in the bursal cavity) two hours before exposure to 0.1 Gy of ionizing radiation, delivered as a single dose. […] Females, irradiated without or with S1P pre-treatment, are then mated with non-irradiated C57BL/6J males beginning 2 months post-irradiation. The F0 females are caged with adult (2-4 month old) wild type C57BL/6J males for 15 d. As a control to assure the fertility of the males, each is mated to a female of proven fertility. After delivery, pups of first time mothers are fostered while pups of subsequent litters are maintained with their natural mothers. […] The F0 female mice are bred again with a new wild type male two weeks after the pups are weaned, and the process is repeated for a total of 4 matings.
It is next examined whether preservation of ovarian function and fertility might result in propagation of genomic damage to the F2 progeny. To generate F2 offspring, F1 males and females are each bred at 2 months of age with adult (2-4 month old) wild type C57BL/6J females or males, respectively (see FIG. 6 for details).

F0 oocytes = test: DNA damage in F0 oocytes scored at diakinesis/metaphase I; format: in vivo, mouse
[2] = test system: ovaries (oocyte-containing follicles); test: S1P protection against radiation in vivo, histomorphometric count of non-atretic oocyte-containing follicles; set-up: species or system mouse
Protocol: The serial sections from each ovary are aligned in order on glass microscope slides, stained with hematoxylin/picric methyl blue, and analyzed for the number of healthy (non-atretic) oocyte-containing primordial, primary and small preantral follicles as described by Perez et al. Nat. Genet.
Young adult (postpartum day 40) wild-type female mice are anesthetized, and dorsal incisions are made to retrieve and expose the ovaries. Five μl of vehicle (PET) are injected into the bursa of one ovary of the pair while 5 μl of a stock of either 0.5 or 2 mM S1P, prepared in PET, are injected into the bursa of the contralateral ovary. Based on an estimated bursal cavity volume of 50 μl, the final concentrations of S1P in the bursal cavity for ovarian exposure following administration of the 0.5 and 2 mM stocks are approximately 50 and 200 μM, respectively. The ovaries are returned to the peritoneal cavity, the incisions are sutured, and the mice are allowed to recover for a 2 hour pretreatment period prior to a single exposure to 0.1 Gy of abdominally-directed ionizing radiation.

[3] = test system: ovaries (oocyte-containing follicles); conditions: Morita et al., Nat. Med. 6 (2000); cited from earlier work
oocytes = conditions: mouse oocytes cultured with S1P before doxorubicin exposure; Perez et al. (1997); cited from earlier work
[4] = test system: germ cells of wild-type fetal ovaries (e13.5); test: Fetal ovary culture without hormonal support, germ cell survival; format: cell-based, mouse
Protocol: To determine the basis of the extensive oocyte hyperplasia in ASMase −/− neonates, fetal ovaries are harvested from wild-type and mutant mice at embryonic day 13.5 (e13.5) for in vitro culture as a model to recapitulate the events surrounding germline death that occurs as a normal component of female gametogenesis. A time-dependent activation of programmed cell death is observed in the germline of wild-type fetal ovaries cultured without hormonal support for up to 72 hours (FIG. 2A). […] These findings indicate that there exists an ovarian-intrinsic cell death defect in the ASMase-deficient mouse, and point to enhanced survival of the developing germline during oogenesis as the mechanism underlying the enlarged oocyte pool seen in mutant females at birth.
Equivalent levels of in vitro germ cell survival are obtained by either ASMase gene knockout (FIG. 2A) or by S1P treatment (FIG. 2B).

CCCCCCCCCCCCC/C=C/[C@@H](O)[C@@H](N)COP(=O)(O)O [S1P, sphingosine-1-phosphate]
frequency of micronuclei in F0 animals versus non-irradiated controls ([1]; 0.1 Gy, S1P-treated, statistically significant (P<0.01)): small increase in the frequency of micronuclei over non-irradiated controls
frequency of micronuclei, vehicle-treated versus S1P-treated irradiated mice ([1]; F0, 0.1 Gy): no significant difference in the frequency of micronuclei
irradiated females remaining fertile after one year (C57BL/6J female mice; 200 μM S1P before 0.1 Gy, fourth mating trial, P<0.001 vs. vehicle-treated irradiated females): 75%
irradiated females delivering litters, first mating trial (C57BL/6J female mice; 200 μM S1P before 0.1 Gy, mating 2 months post-irradiation, n=8): all
litter size (C57BL/6J female mice; S1P-treated irradiated group (0.1 Gy), average): 6.1±0.4 pups per mating
frequency of rejection of pups by irradiated mothers (C57BL/6J female mice; mothers treated or not with S1P): no increase in the frequency of rejection of pups
phenotypic or behavioral abnormalities in F2 offspring (C57BL/6J female mice; second generation): no gross phenotypic or behavioral abnormalities
phenotypic or behavioral abnormalities in F1 offspring (C57BL/6J female mice; up to 18 months of age): No phenotypic or behavioral abnormalities
Oocytes with Breaks/Crosstalk (% of total) (F0 oocytes; 0.05 Gy + S1P): 16.4%
Average Oocytes/o (mean ± SEM) (F0 oocytes; 0.05 Gy + S1P (200 μM intrabursal), 8 weeks after irradiation, n=8): 30.8 ± 3.9
Oocytes with Breaks/Crosstalk, number (F0 oocytes; 0.05 Gy + S1P, of 110 total scorable oocytes): 18
Oocytes with Breaks/Crosstalk (% of total) (F0 oocytes; 0.1 Gy + S1P): 27.6%
Oocytes with Breaks/Crosstalk, number (F0 oocytes; 0.1 Gy + S1P, of 86 total scorable oocytes): 24
percentage of oocyte population manifesting DNA damage versus vehicle-treated irradiated mice (F0 oocytes; S1P-treated irradiated females): no increase in the percentage of the oocyte population manifesting DNA damage
preservation of the germ cell reserve ([2]; S1P approx. 50 and 200 μM intrabursal, two hours before 0.1 Gy, ovaries two weeks later): significant and dose-dependent preservation of the germ cell reserve
side effects on the ovaries ([2]; general statement): safe and without side effects on the ovaries
protection of follicle populations after irradiation ([2]; highest dose of S1P (200 μM in bursal cavity), two hours before 0.1 Gy, two weeks post-irradiation): complete protection of the quiescent (primordial) and growing (primary, preantral) follicle populations; also recorded: retain a completely normal distribution of oocyte-containing follicles at all stages of development; also recorded: indistinguishable from non-irradiated controls; also recorded: Complete protection of the female germline from radiation-induced death
number of follicles at any stage of development versus vehicle-treated ovaries ([2]; in the absence of irradiation, intrabursal S1P): does not significantly differ
protection of oocyte population from apoptotic death following radiotherapy [3]: essentially protects the entire oocyte population from apoptotic death
protection of oocytes from doxorubicin-induced death in vitro (oocytes): protected the oocytes from death induced by subsequent doxorubicin exposure for up to 24 hours
share of starting population of germ cells preserved ([4]; after 72 hours of hormone deprivation, versus 0 h): Over one-half of the starting population of germ cells (0 h or Time 0) is preserved
germ cell survival / germ cell apoptosis in cultured fetal ovaries ([4]; wild-type fetal ovaries, 72 hours in vitro without hormonal support, FB1 5-500 μM, S1P increasing concentrations): the reduced incidence of germ cell apoptosis conveyed by ASMase-deficiency is recapitulated
